According to patent US20230075765A1, “PYRROLO[2,3-D]PYRIMIDINE DERIVATIVE TARGETING EGFR MUTATION, AS WELL AS THE PREPARATIVE METHOD AND THE USE THEREOF” (WEST CHINA HOSPITAL, SICHUAN UNIVERSITY, priority 2020, published 2023):

Tests used:
Type in all cases: cell-based, human
EGFR-Tyr992 = assay: Western blot, inhibition of EGFR phosphorylation; settings: H1975 cells
Experimental: (§1) (1) Various cell lines in the logarithmic growth phase were evenly inoculated in a 6-well plate at a concentration of 3×10^6 cells/well, respectively, and cultured for 24 h;
(§2) (2) The culture supernatant was removed, and then the cells were washed twice with PBS, and treated with serum-free medium for 1 hour;
(§3) (3) The culture supernatant was removed, and each compound at different concentrations was added, then the cells were treated for 2 h;
(§4) (4) The supernatant was removed, and the cells were washed twice with pre-cooled PBS, then the supernatant was discarded;
(§5) (5) 100 μl of cell lysate was added to each well, and cells were lysed on ice for 10 min. The cells were scraped with a cell scraper. The cell lysate was transferred to a pre-cooled 1.5 ml EP tube, sonicated, and centrifuged under 12000 rpm at 4° C. for 10 min. The supernatant was carefully aspirated and stored at −20° C.
(§6) (6) To the aliquoted total cell protein, was added 5 μl of 5× loading buffer, and the protein was denatured in a water bath at 100° C. for 10 min, then the sample was centrifugated and loaded;
(1) The successfully transferred membrane was placed in the 1× blocking solution prepared, and kept in the blocking solution at room temperature for about 1 h; […]

Akt = assay: Western blot, inhibition of Akt phosphorylation
Experimental: as §1, §2, §3, §4, §5, §6
(§7) (1) The successfully transferred membrane was placed in the 1× blocking solution prepared, and kept in the blocking solution at room temperature for about 1 h;
(§8) (2) EGFR protein and its downstream proteins were diluted with 1× primary antibody diluent, and incubated overnight at 4° C., using […] antibody as an internal reference;
(§9) (3) The membrane was washed 3 times with 1×TBST, 5 min for each time, and then washed with 1× secondary antibody dilution, followed by incubation for 1 h at room temperature. Finally, the membrane was washed 3 times with 1×TBST, 15 min for each time.
(§10) (2) The mixed ECL reagent was added to PVDF membrane (1 ml/10 cm^2), and subjected to chemiluminescence to obtain a band;
(§11) Western Blot method was used to analyze the influence of each compound on the expression of pathway proteins.

ERK1/2 = assay: Western blot, inhibition of ERK1/2 phosphorylation
Experimental: as §1, §2, §3, §4, §5, §6, §7, §8, §9, §10, §11

H1975 cells [1] = assay: Apoptosis, Annexin V-FITC/PI double staining, flow cytometry; settings: for Total apoptosis rate (%): 18 h (control 9.2)
Experimental: (§12) Apoptosis was detected by Annexin V-FITC/PI double staining method. A variety of different cells in the logarithmic growth phase were inoculated evenly in a 6-well plate at a concentration of 1×10^6 cells/well, 2 ml for each well, and then incubated overnight. Then, different compounds were added, and each compound was set different concentrations. After 18 h, the cells were collected with 0.25% trypsin without EDTA and washed twice with PBS solution. Then, the cells were stained by the apoptosis detection kit according to the instructions, and analyzed by flow cytometry.
(§13) In the experiment, human lung cancer cells HCC827 cells and H1975 cells were selected as the detection system. The control group was a blank control (DMSO). The test concentrations of the compounds were 0.5 μM and 5 μM. After treatment with the compounds for 18 h, the flow cytometry was used for detection. In the apoptosis result graph, the cells in quadrant E1 are necrotic cells, the cells in quadrant E2 are late apoptotic cells, the cells in quadrant E3 area represent live cells, and the cells in quadrant E4 are early apoptotic cells.

HCC827 cells [2] = assay: as above; settings: for Total apoptosis rate (%): 18 h (control 10.8)
Experimental: as §12, §13

H1975 cells [3] = assay: Cell cycle, PI staining, flow cytometry; settings: for G2/M phase (%): 18 h (control 14.52); for S phase (%): 18 h (control 30.25); for G0/G1 phase (%): 18 h (control 55.23)
Experimental: (§14) A variety of different cells in the logarithmic growth phase were inoculated evenly in a 6-well plate at a concentration of 1×10^6 cells/well, 2 ml for each well, and then incubated overnight. Then, different compounds were added, and each compound was set different concentrations. After 18 h, the cells were collected, resuspended in PBS, and centrifuged to remove the supernatant, to which was then added 0.5 ml of pre-cooled 75% absolute ethanol dropwise, followed by vortexing to mix the cells and standing overnight at 4° C. The solution was centrifuged at 1000 rpm/min for 4 min, and the supernatant was discarded. Propidium iodide staining solution was prepared by using 5.6 ml staining buffer, 210 μl propidium iodide staining solution (25×), and 56 μl RNaseA (2.5 mg/ml). 0.4 ml of propidium iodide staining solution was added to each tube to resuspend the cells, and then incubated for 30 min at room temperature in the dark. The cell suspension was gently pipetted to mix, filtered into a flow tube, and stored in the dark at 4° C. The cells were detected on the flow cytometer within 1 h.

HCC827 cells [4] = assay: Cell cycle, PI staining, flow cytometry; settings: for G2/M phase (%): 18 h (control 24.99); for S phase (%): 18 h (control 33.66); for G0/G1 phase (%): 18 h (control 41.35)
Experimental: as §14

Compound	inhibition of phosphorylation of EGFR-Tyr992 (EGFR-Tyr992)	inhibition of phosphorylation of Akt (Akt; H1975 cells)	inhibition of phosphorylation of Akt (Akt; wild-type EGFR cells)	inhibition of phosphorylation of ERK1/2 (ERK1/2; H1975 cells)	inhibition of phosphorylation of ERK1/2 (ERK1/2; wild-type EGFR cells)	apoptosis-inducing effect (in words) (H1975 cells [1])	Total apoptosis rate (%) (H1975 cells [1]; 0.5 μM)	Total apoptosis rate (%) (H1975 cells [1]; 5 μM)	apoptosis-inducing effect (in words) (HCC827 cells [2])	Total apoptosis rate (%) (HCC827 cells [2]; 0.5 μM)	Total apoptosis rate (%) (HCC827 cells [2]; 5 μM)	ratio of cells in the G0/G1 phase compared with the control group (in words) (H1975 cells [3])	G2/M phase (%) (H1975 cells [3]; 0.5 μM)	S phase (%) (H1975 cells [3]; 0.5 μM)	G0/G1 phase (%) (H1975 cells [3]; 0.5 μM)	G2/M phase (%) (H1975 cells [3]; 5 μM)	S phase (%) (H1975 cells [3]; 5 μM)	G0/G1 phase (%) (H1975 cells [3]; 5 μM)	ratio of cells in the G0/G1 phase compared with the control group (in words) (HCC827 cells [4])	G2/M phase (%) (HCC827 cells [4]; 0.5 μM)	also measured
C=CC(=O)Nc1cccc(Oc2nc(Nc3ccc(N4CCN(C)CC4)c([N+](=O)[O-])c3)nc3[nH]ccc23)c1 [Compound 5]	effectively inhibited	inhibited	much weaker inhibitory effects	inhibited	much weaker inhibitory effects	certain apoptosis-inducing effects	12.7	13.5	certain apoptosis-inducing effects	30.3	23.8	significantly higher	9.17	4.64	86.20	11.64	14.04	74.33	significantly higher	9.72	S phase (%) (HCC827 cells [4]; 0.5 μM): 16.99%; G0/G1 phase (%) (HCC827 cells [4]; 0.5 μM): 73.29%; G2/M phase (%) (HCC827 cells [4]; 5 μM): 14.12%; S phase (%) (HCC827 cells [4]; 5 μM): 4.36%; G0/G1 phase (%) (HCC827 cells [4]; 5 μM): 81.52%
C=CC(=O)Nc1cccc(Oc2nc(Nc3ccc(N4CCN(C)CC4)c(N)c3)nc3[nH]ccc23)c1 [Compound 6]	effectively inhibited	inhibited	much weaker inhibitory effects	inhibited	much weaker inhibitory effects	certain apoptosis-inducing effects	16.4	16.1	certain apoptosis-inducing effects	28.7	23.6	significantly higher	10.49	5.28	84.24	13.18	10.59	76.23	significantly higher	10.27	S phase (%) (HCC827 cells [4]; 0.5 μM): 11.62%; G0/G1 phase (%) (HCC827 cells [4]; 0.5 μM): 78.11%; G2/M phase (%) (HCC827 cells [4]; 5 μM): 7.95%; S phase (%) (HCC827 cells [4]; 5 μM): 13.93%; G0/G1 phase (%) (HCC827 cells [4]; 5 μM): 78.12%
